{
  "source": "ChEMBL document CHEMBL1121440",
  "about": "“Soft drugs. 2. Soft alkylating compounds as potential antitumor agents” (1980)",
  "assay_type_in_all_cases": "functional",
  "settings_in_all_cases": "P388, ip, route intraperitoneal",
  "key": {"[1]": {"test_system": "Mus musculus", "experiment": "Evaluated for % increase in median survival rate against P388 Lymphocytic Leukemia at a dose of 400 mg/kg administered intraperitoneally"}, "[2]": {"test_system": "Mus musculus", "experiment": "Evaluated for % increase in median survival rate against P388 Lymphocytic Leukemia at a dose of 200 mg/kg administered intraperitoneally"}, "[3]": {"test_system": "Mus musculus", "experiment": "Evaluated for % increase in median survival rate against P388 Lymphocytic Leukemia at a dose of 100 mg/kg administered intraperitoneally"}, "[4]": {"test_system": "Mus musculus", "experiment": "Evaluated for % increase in median survival rate against P388 Lymphocytic Leukemia at a dose of 50 mg/kg administered intraperitoneally"}},
  "data": [
    {"smiles": "CCCCCCC(=O)OCCl", "note": "[HEPTANOIC ACID CHLOROMETHYL ESTER]", "values": [
      {"measurement": "ILS at 400 mg/kg", "setting": "[1]", "value": 109, "unit": "%"},
      {"measurement": "ILS at 200 mg/kg", "setting": "[2]", "value": 127, "unit": "%"},
      {"measurement": "ILS at 100 mg/kg", "setting": "[3]", "value": 120, "unit": "%"},
      {"measurement": "ILS at 50 mg/kg", "setting": "[4]", "value": 107, "unit": "%"}
    ]}
  ]
}
